The record followed here is patent US8912216B2, “Hetaryl-[1,8]naphthyridine derivatives” (Merck Patent GmbH, priority 2010, dated 2014).

Where only a bound is given, the exact number is not on record here.

Experiment [1] concerns TGF-beta-induced phosphorylation of Smad2 and Smad3 in Mv1-Lu cells. The experiment is described as follows: Inhibition of Smad2/3 phosphorylation in Mv1Lu cells (Example 35A). It counts as cell-based, mink Mustela vison. The note with it: Neogale vison, Mv1-Lu cells, TGF-beta 1 5 ng/ml, phospho-Smad2/3 ELISA, read-out: TβR activity (Example 35A). The protocol: Inhibition of Smad2/3 Phosphorylation in Mv1Lu Cells by TGF-bta Receptor I Kinase Inhibitors
This assay was used to determine the inhibitory potency of compounds on TGF-beta-induced phosphorylation of Smad2 (Ser465/467) and Smad3 (Ser423/425). Mv1-Lu cells (lung epithelial cell line from mink Mustela vison; ATCC number: CCL-64) were seeded in DMEM (Invitrogen) supplemented with 10% fetal bovine serum (Pan Biotech) at a defined cell density in 24-well or 96-well plates (24-well plate: 1.5×10^5 cells per well; 96-well plate: 4×10^4 cells per well). Cell cultures were incubated in DMEM at 37° C. and 10% CO2. On the next day, the medium was replaced and cells were serum-starved for 16-20 hours. The following day, serial dilutions of compounds were added to the wells, pre-incubated for 1.5 hrs before recombinant TGF-beta 1 ligand (final concentration 5 ng/ml; R&D systems) was added. After one hour of ligand stimulation, lysates were prepared and analyzed using an enzyme-linked immunosorbent assay kit (PathScan Phospho-Smad2 Kit, Cell Signaling Technologies). The ELISA detects phosphorylated Smad2 as well as phosphorylated Smad3 with the phospho-specific antibody. TGF-beta stimulated cells and unstimulated cells served as positive and negative controls (100% and background control). The concentration of the vehicle DMSO was kept constant at 0.2% (v/v) in all wells. Dose-response relationships were fitted using curve fitting algorithms of the RS1 statistics software package (Brooks Automation Inc. RS/1—Statistical Tools Handbook. Release 6.2) to determine the concentration at which half-maximal inhibition (IC50) of Smad2/3 phosphorylation was achieved.

The target of another experiment is T1, GST-ALK5 (Homo sapiens, UniProt P36897).
T1 sequence (P36897 34-503): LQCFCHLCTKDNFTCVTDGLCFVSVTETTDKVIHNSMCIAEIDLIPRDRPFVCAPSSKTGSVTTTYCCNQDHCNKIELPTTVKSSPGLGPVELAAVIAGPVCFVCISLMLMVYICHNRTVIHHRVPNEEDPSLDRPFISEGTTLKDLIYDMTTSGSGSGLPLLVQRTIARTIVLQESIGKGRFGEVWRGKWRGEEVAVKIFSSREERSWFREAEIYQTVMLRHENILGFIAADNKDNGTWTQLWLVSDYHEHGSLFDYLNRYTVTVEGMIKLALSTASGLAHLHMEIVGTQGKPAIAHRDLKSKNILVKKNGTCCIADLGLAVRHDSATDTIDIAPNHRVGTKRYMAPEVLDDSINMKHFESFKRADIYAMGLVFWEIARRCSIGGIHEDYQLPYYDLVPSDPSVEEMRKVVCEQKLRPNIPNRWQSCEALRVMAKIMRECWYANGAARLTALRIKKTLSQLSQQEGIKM
The experiment is described as follows: In-vitro (enzyme) kinase assay, 384-well flashplate (Example 36). It counts as biochemical. The note with it: GST-ALK5, GST-SMAD2 substrate, 3 mM ATP, 30° C., 45 min; read-out: TβR activity (Example 36). The protocol: In-vitro (Enzyme) Assay for Determination of the Efficacy of Inhibitors of the Inhibition of TGF-beta-Mediated Effects
The kinase assay was carried out as 384-well flashplate assay. 31.2 nM of GST-ALK5, 439 nM of GST-SMAD2 and 3 mM of ATP (with 0.3 μCi of ^33P-ATP/well) were incubated in a total volume of 35 μl (20 mM of HEPES, 10 mM of MgCl2, 5 mM of MnCl2, 1 mM of DTT, 0.1 of BSA, pH 7.4) without or with test substance (5-10 concentrations) at 30° C. for 45 min. The reaction was stopped using 25 μl of 200 mM EDTA solution, filtered with suction at room temperature after 30 min, and the wells were washed with 3 times 100 μl of 0.9% NaCl solution. Radioactivity was measured in the TopCount. The IC50 values were calculated using RS1.

As to `Fc1ccc(F)c(-c2cc(-c3cncc(-c4cccc(OCCN5CCNCC5)c4)c3)c3cccnc3n2)c1` [compound 148, 2-(2,5-Difluoro-phenyl)-4-{5-[3-(2-piperazin-1-yl-ethoxy)-phenyl]-pyridin-3-yl}-[1,8]naphthyridine], the IC50 (in experiment [1]; on GST-ALK5) was < 100 nM each time.

As for `Fc1ccc(Cl)cc1-c1cc(-c2cncc3ccccc23)c2ccccc2n1` [compound 1, 2-(5-Chloro-2-fluoro-phenyl)-4-isoquinolin-4-yl-quinoline], the IC50 (in experiment [1]; on GST-ALK5) was 1000 to 10000 nM throughout.

Consider `CC(=O)Nc1ccc(-c2cncc(-c3cc(-c4cc(Cl)ccc4F)nc4ncccc34)c2)nn1` [compound 122, N-(6-{5-[2-(5-Chloro-2-fluoro-phenyl)-[1,8]naphthyridin-4-yl]-pyridin-3-yl}-pyridazin-3-yl)-acetamide], for which the IC50 (in experiment [1]; on GST-ALK5) was 100 to 1000 nM each time.

As to `Cn1cc(-c2cc(-c3cc(-c4cc(Cl)ccc4F)nc4ncccc34)cnc2N)cn1` [compound 31, 5-[2-(5-chloro-2-fluoro-phenyl)-[1,8]naphthyridin-4-yl]-3-(1-methyl-1H-pyrazol-4-yl)-pyridin-2-ylamine], the IC50 in experiment [1] is > 10000 nM; on GST-ALK5 it was 1000 to 10000 nM.

Turning to `Fc1ccc(Cl)cc1-c1cc(-c2cncc(-c3ccccc3)c2)c2ccccc2n1` [compound 6, 2-(5-Chloro-2-fluoro-phenyl)-4-(5-phenyl-pyridin-3-yl)-quinoline], the IC50 in experiment [1] is > 10000 nM; on GST-ALK5, 1000 to 10000 nM.

Regarding `CN1CCC(n2cc(-c3cncc(-c4cc(-c5cc(Cl)ccc5F)nc5ncccc45)c3)nn2)CC1` [compound 57, 2-(5-Chloro-2-fluoro-phenyl)-4-{5-[1-(1-methyl-piperidin-4-yl)-1H-[1,2,3]triazol-4-yl]-pyridin-3-yl}-[1,8]naphthyridine], the IC50 (in experiment [1]; at GST-ALK5) was < 100 nM in each case.

For `Fc1ccc(F)c(-c2cc(-c3cccnc3)c3cccnc3n2)c1` [compound 137, 2-(2,5-Difluoro-phenyl)-4-pyridin-3-yl-[1,8]naphthyridine], the IC50 in experiment [1] is > 10000 nM; on GST-ALK5 it was 1000 to 10000 nM.

Consider `CN1CCN(c2ccc(-c3cncc(-c4cc(-c5cc(Cl)ccc5F)nc5ncccc45)c3)cc2)CC1` [compound 92, 2-(5-Chloro-2-fluoro-phenyl)-4-{5-[4-(4-methyl-piperazin-1-yl)-phenyl]-pyridin-3-yl}-[1,8]naphthyridine], for which the IC50 (in experiment [1]; at GST-ALK5) was < 100 nM each time.

For the compound `Fc1ccc(Cl)cc1-c1cc(-c2cncc(-c3cccc(-n4ccnc4)n3)c2)c2cccnc2n1` [compound 110, 2-(5-Chloro-2-fluoro-phenyl)-4-(6-imidazol-1-yl-[2,3′]bipyridinyl-5′-yl)-[1,8]naphthyridine], the IC50 (in experiment [1]; at GST-ALK5) was > 10000 nM in each case.

For the compound `Fc1ccc(F)c(-c2cc(-c3cncc(-c4ccc(OC5CCNCC5)cc4)c3)c3cccnc3n2)c1` [compound 120, 2-(2,5-DifIuoro-phenyl)-4-{5-[4-(piperidin-4-yloxy)-phenyl]-pyridin-3-yl}-[1,8]naphthyridine], the IC50 (in experiment [1]; at GST-ALK5) was < 100 nM throughout.

In the case of `OC/C=C/Cn1cc(-c2cncc(-c3cc(-c4ccccc4F)nc4ncccc34)c2)cn1` [compound 84], the IC50 is 100 to 1000 nM in experiment [1] and < 100 nM at GST-ALK5.

As to `Nc1ccc(-c2cncc(-c3cc(-c4cc(Cl)ccc4F)nc4ncccc34)c2)cn1` [compound 169, 5′-[2-(5-Chloro-2-fluoro-phenyl)-[1,8]naphthyridin-4-yl]-[3,3′]bipyridinyl-6-ylamine], the IC50 in experiment [1] is 100 to 1000 nM; on GST-ALK5, < 100 nM.

`CN1CCC(n2cc(-c3cncc(-c4cc(-c5ccccc5)nc5ncccc45)c3)cn2)CC1` [compound 63, 4-{5-[1-(1-Methyl-piperidin-4-yl)-1H-pyrazol-4-yl]-pyridin-3-yl}-2-phenyl-[1,8]naphthyridine]: the IC50 was 100 to 1000 nM in experiment [1] and < 100 nM on GST-ALK5.
